Tests used:
human P2X7 = human P2X7 (Homo sapiens (Human), UniProt Q99572); assay: Human P2X7 functional assay (Ca2+ influx, Fluo-4, FDSS); format: cell-based; details: antagonistic activity with respect to the human P2X7 receptor; BzATP final concentration 80 microM
Procedure, shortened: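 HEK293 cells stably expressing C-terminally FLAG-tagged human P2X7, loaded with Fluo-4. Compounds were preincubated for 10 min at room temperature, then 80 μM BzATP (final) was added and Ca2+ fluorescence read at 540 nm (480 nm excitation) by FDSS. IC50 values come from 7-point curves, duplicate wells.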

rat P2X7 = rat P2X7 (Rattus norvegicus (Rat), UniProt Q64663); assay: Rat P2X7 functional assay (Ca2+ influx, Fluo-4, FDSS); format: cell-based; details: HEK293 cells stably expressing rat P2X7; BzATP final 10 microM; 7-point dose-response; read-out: Antagonistic activities with respect to the rat P2X7 receptor (IC50)
rat P2X7, sequence (Q64663 whole entry): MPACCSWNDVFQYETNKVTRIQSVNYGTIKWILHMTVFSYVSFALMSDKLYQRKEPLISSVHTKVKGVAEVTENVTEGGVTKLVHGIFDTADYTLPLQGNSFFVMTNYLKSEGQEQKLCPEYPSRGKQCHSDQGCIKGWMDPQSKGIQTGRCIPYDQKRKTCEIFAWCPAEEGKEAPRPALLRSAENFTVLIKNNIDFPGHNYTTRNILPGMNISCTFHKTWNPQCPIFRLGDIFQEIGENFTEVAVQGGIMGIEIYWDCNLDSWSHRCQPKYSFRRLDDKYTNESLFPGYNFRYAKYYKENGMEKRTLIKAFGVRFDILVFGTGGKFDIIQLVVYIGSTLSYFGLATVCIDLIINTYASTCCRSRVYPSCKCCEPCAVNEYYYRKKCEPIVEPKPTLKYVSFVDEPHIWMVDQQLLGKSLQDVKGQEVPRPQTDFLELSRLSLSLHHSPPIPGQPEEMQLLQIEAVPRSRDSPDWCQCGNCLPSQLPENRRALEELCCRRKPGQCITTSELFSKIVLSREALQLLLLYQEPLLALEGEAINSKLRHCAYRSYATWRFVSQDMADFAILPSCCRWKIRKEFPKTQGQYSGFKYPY
Procedure, shortened: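 HEK293 cells stably expressing rat P2X7 (5,000/well, plated 24 h before) loaded with Fluo-4; compounds preincubated 10 min at room temperature, then Ca2+ rise after 10 microM BzATP (final) read on FDSS (480/540 nm). IC50 from 7-point curves, duplicate wells.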

human P2X7, sequence (Q99572 whole entry): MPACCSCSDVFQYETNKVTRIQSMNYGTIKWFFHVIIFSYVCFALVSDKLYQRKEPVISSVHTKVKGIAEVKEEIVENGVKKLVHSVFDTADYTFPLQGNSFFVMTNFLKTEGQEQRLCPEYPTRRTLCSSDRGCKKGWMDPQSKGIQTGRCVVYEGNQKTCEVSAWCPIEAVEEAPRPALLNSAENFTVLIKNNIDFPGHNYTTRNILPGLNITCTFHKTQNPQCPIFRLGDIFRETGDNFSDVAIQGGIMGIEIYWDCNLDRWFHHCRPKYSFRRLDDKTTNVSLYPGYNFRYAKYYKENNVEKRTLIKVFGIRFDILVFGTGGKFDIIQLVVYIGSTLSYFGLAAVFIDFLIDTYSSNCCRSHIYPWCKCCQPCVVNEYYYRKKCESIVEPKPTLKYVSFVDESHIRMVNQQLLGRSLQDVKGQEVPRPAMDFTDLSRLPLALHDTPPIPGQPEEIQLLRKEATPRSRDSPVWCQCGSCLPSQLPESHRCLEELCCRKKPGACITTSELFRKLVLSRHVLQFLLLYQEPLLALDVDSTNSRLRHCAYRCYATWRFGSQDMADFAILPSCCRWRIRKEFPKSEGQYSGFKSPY

| Compound | IC50 (human P2X7) | IC50 (rat P2X7) |
| --- | --- | --- |
| O=C(NCc1c(F)cc(Cl)cc1Cl)[C@]1(F)CC[C@](O)(CO)c2ncccc21 [Example 311, (5S,8R)-N-(2,4-dichloro-6-fluorobenzyl)-5-fluoro-8-hydroxy-8-(hydroxymethyl)-5,6,7,8-tetrahydroquinoline-5-carboxamide] | 50 to 100 nM | < 1000 nM |
| O=C(NCc1ccc(Cl)cc1Cl)[C@@H]1CC[C@@H](O)c2ncccc21 [Example 87, (5R,8R)-N-(2,4-dichloro-benzyl)-8-hydroxy-5,6,7,8-tetrahydroquinoline-5-carboxamide] | 50 to 100 nM | < 1000 nM |
| CO[C@H]1CC[C@](F)(C(=O)NCc2c(Cl)cc(Cl)cc2CO)c2cccnc21 [Example 333, (5R,8S)-N-(2,4-dichloro-6-(hydroxymethyl)benzyl)-5-fluoro-8-methoxy-5,6,7,8-tetrahydroquinoline-5-carboxamide] | 101 to 300 nM | < 1000 nM |
| O=C(NCc1cccc(Cl)c1Cl)C1CC(O)c2ncccc21 (centres unmarked) [Example 28, N-(2,3-dichlorobenzyl)-7-hydroxy-6,7-dihydro-5H-cyclo-penta[b]pyridine-5-carboxamide] | 50 to 100 nM | < 1000 nM |
| O=C(NCc1cc(F)cc(Cl)c1)[C@]1(F)CC[C@H](O)c2ncccc21 [Example 203, (5S,8S)-N-(3-chloro-5-fluorobenzyl)-5-fluoro-8-hydroxy-5,6,7,8-tetrahydroquinoline-5-carboxamide] | 50 to 100 nM | < 1000 nM |
| O=C(NCc1c(Cl)cc(Cl)cc1CO)[C@]1(F)CC[C@@](O)(CO)c2ncccc21 [Example 316, (5S,8S)-N-(2,4-dichloro-6-(hydroxymethyl)benzyl)-5-fluoro-8-hydroxy-8-(hydroxymethyl)-5,6,7,8-tetrahydroquinoline-5-carboxamide] | < 50 nM | < 1000 nM |

The next lines start with the values.

| IC50 (human P2X7) | IC50 (rat P2X7) | Compound |
| --- | --- | --- |
| < 50 nM | < 1000 nM | C[C@]1(O)CC[C@@](F)(C(=O)NCc2ccc(Cl)cc2Cl)c2cccnc21 [Example 256, (5S,8S)-N-(2,4-dichlorobenzyl)-5-fluoro-8-hydroxy-8-methyl-5,6,7,8-tetrahydroquinoline-5-carboxamide] |
| < 50 nM | < 1000 nM | O=C(NCc1cccc(C(F)(F)F)c1Cl)[C@]1(F)CC[C@@H](O)c2ncccc21 [Example 102, (5S,8R)-N-(2-chloro-3-(trifluoromethyl)benzyl)-5-fluoro-8-hydroxy-5,6,7,8-tetrahydroquinoline-5-carboxamide] |
| < 50 nM | < 1000 nM | O=C(NCc1ccc(Br)cc1F)[C@]1(F)CC[C@H](O)c2ncccc21 [Example 182, (5S,8S)-N-(4-bromo-2-fluorobenzyl)-5-fluoro-8-hydroxy-5,6,7,8-tetrahydroquinoline-5-carboxamide] |
| < 50 nM | < 1000 nM | O=C(NCc1cccc(Cl)c1Cl)C1CCC(O)c2ncccc21 (centres unmarked) [Example 8, N-(2,3-dichlorobenzyl)-8-hydroxy-5,6,7,8-tetra hydroquinoline-5-carboxamide] |
| < 50 nM | < 1000 nM | O=C(NCc1cccc(C(F)(F)F)c1Cl)C1(F)CCC(O)c2ncccc21 (centres unmarked) [Example 19, N-(2-chloro-3-(trifluoro-methyl)benzyl)-5-fluoro-8-hydroxy-5,6,7,8-tetrahydro-quinoline-5-carboxamide] |
| < 50 nM | < 1000 nM | O=C(NCc1c(F)cccc1Cl)[C@]1(F)CC[C@H](O)c2ncccc21 [Example 171, (5S,8S)-N-(2-chloro-6-fluorobenzyl)-5-fluoro-8-hydroxy-5,6,7,8-tetrahydroquinoline-5-carboxamide] |
| < 50 nM | < 1000 nM | COC1(C)CN(C[C@]2(O)CC[C@@](F)(C(=O)NCc3ccc(F)cc3Cl)c3cccnc32)C1 (relative stereo) [Example 55, (5S*,8R*)-N-(2-chloro-4-fluorobenzyl)-5-fluoro-8-hydroxy-8-((3-methoxy-3-methylazetidin-1-yl)methyl)-5,6,7,8-tetra-hydroquinoline-5-carboxamide] |
